Measured values: ChEMBL document CHEMBL6182864, “Design, synthesis and biological evaluation of 3-amino-6-(2-hydroxyphenyl)pyridazin-4-aryl derivatives as SMARCA2/4 degraders” (Eur J Med Chem, 2025)
Calls of active or inactive are those of the source. No cut-off for these calls is given here.

Legend:
[1] = Cmax in SPF Sprague-Dawley rat at 10 mg/kg, po by LC-MS/MS analysis; type: ADME, organism-based; details: in vivo
[2] = tested on: MOLM-13; experiment: Induction of apoptosis in human MOLM-13 cells assessed as necrotic cells at 1000 nM measured after 72 hrs by Annexin-V-FITC/propidium iodide staining based flow cytometry (reference value: 0.28%); type: functional
[3] = tested on: MOLM-13; experiment: Induction of apoptosis in human MOLM-13 cells assessed as late apoptotic cells at 100 nM measured after 72 hrs by Annexin-V-FITC/propidium iodide staining based flow cytometry (reference value: 3.87%); type: functional
[4] = tested on: MV4-11; experiment: Down regulation of MYC protein expression in human MV4-11 cells at 11.1 to 1000 nM measured after 24 hrs by Western blot analysis; type: functional, cell-based; details: dose 11.1-1000 nM
[5] = tested on: MOLM-13; experiment: Antiproliferative activity against human MOLM-13 cells assessed as reduction in cell viability at 100 nM by MTT assay; type: functional, cell-based; details: time 3-7 day
[6] = tested on: MV4-11; experiment: Antiproliferative activity against human MV4-11 cells assessed as reduction in cell viability at 100 nM by MTT assay; type: functional, cell-based; details: time 3-7 day
[7] = tested on: MV4-11; experiment: Cell cycle arrest in human MV4-11 cells assessed as increase in accumulation of cells at G0/G1 phase measured after 48 hrs by propidium iodide staining based flow cytometry; type: functional; details: dose 100-1000 nM
[8] = tested on: MOLM-13; experiment: Induction of apoptosis in human MOLM-13 cells assessed as late apoptotic cells at 300 nM measured after 72 hrs by Annexin-V-FITC/propidium iodide staining based flow cytometry (reference value: 3.87%); type: functional
[9] = tested on: MV4-11; experiment: Induction of apoptosis in human MV4-11 cells assessed as late apoptotic cells at 300 nM measured after 72 hrs by Annexin-V-FITC/propidium iodide staining based flow cytometry (reference value: 1.09%); type: functional
[10] = tested on: MV4-11; experiment: Induction of apoptosis in human MV4-11 cells assessed as early apoptotic cells at 100 nM measured after 72 hrs by Annexin-V-FITC/propidium iodide staining based flow cytometry (reference value: 9.32%); type: functional
[11] = tested on: MV4-11; experiment: Induction of apoptosis in human MV4-11 cells assessed as early apoptotic cells at 300 nM measured after 72 hrs by Annexin-V-FITC/propidium iodide staining based flow cytometry (reference value: 9.32%); type: functional
[12] = tested on: MV4-11; experiment: Down regulation of […] mRNA expression in human MV4-11 cells at 11.1 to 33.3 nM measured after 24 hrs by RT-qPCR analysis; type: functional, cell-based; details: dose 11.1-33.3 nM
[13] = tested on: MV4-11; experiment: Down regulation of TRAP1 mRNA expression in human MV4-11 cells at 100 to 1000 nM measured after 24 hrs by RT-qPCR analysis; type: functional, cell-based; details: dose 100-1000 nM
[14] = tested on: A549; experiment: cells; details: Homo sapiens, A549, 72 h
[15] = tested on: HCT-116; experiment: cells; details: Homo sapiens, HCT-116, 72 h
[16] = tested on: MV4-11; experiment: Induction of apoptosis in human MV4-11 cells assessed as early apoptotic cells at 1000 nM measured after 72 hrs by Annexin-V-FITC/propidium iodide staining based flow cytometry (reference value: 9.32%); type: functional
[17] = tested on: MV4-11; experiment: Induction of apoptosis in human MV4-11 cells assessed as necrotic cells at 300 nM measured after 72 hrs by Annexin-V-FITC/propidium iodide staining based flow cytometry (reference value: 0.1%); type: functional
[18] = tested on: MOLM-13; experiment: Induction of apoptosis in human MOLM-13 cells assessed as early apoptotic cells at 100 nM measured after 72 hrs by Annexin-V-FITC/propidium iodide staining based flow cytometry (reference value: 5.57%); type: functional
[19] = tested on: MOLM-13; experiment: Induction of apoptosis in human MOLM-13 cells assessed as necrotic cells at 300 nM measured after 72 hrs by Annexin-V-FITC/propidium iodide staining based flow cytometry (reference value: 0.28%); type: functional
[20] = tested on: MV4-11; experiment: Induction of apoptosis in human MV4-11 cells assessed as viable cells at 100 nM measured after 72 hrs by Annexin-V-FITC/propidium iodide staining based flow cytometry (reference value: 89.49%); type: functional; details: read-out: Activity
[21] = tested on: WSUDLCL2; experiment: cells; details: Homo sapiens, WSUDLCL2, 72 h
[22] = tested on: MOLM-13; experiment: Induction of apoptosis in human MOLM-13 cells assessed as necrotic cells at 100 nM measured after 72 hrs by Annexin-V-FITC/propidium iodide staining based flow cytometry (reference value: 0.28%); type: functional
[23] = MRT (0 to t) in SPF Sprague-Dawley rat at 1 mg/kg, iv by LC-MS/MS analysis; type: ADME, organism-based; details: in vivo
[24] = tested on: MV4-11; experiment: cells; details: Homo sapiens, MV4-11, 72 h
[25] = tested on: MV4-11; experiment: Induction of apoptosis in human MV4-11 cells assessed as necrotic cells at 1000 nM measured after 72 hrs by Annexin-V-FITC/propidium iodide staining based flow cytometry (reference value: 0.1%); type: functional
[26] = tested on: MV4-11; experiment: Down regulation of CDC25A mRNA expression in human MV4-11 cells at 100 to 1000 nM measured after 24 hrs by RT-qPCR analysis; type: functional, cell-based; details: dose 100-1000 nM
[27] = tested on: MOLM-13; experiment: Induction of apoptosis in human MOLM-13 cells assessed as viable cells at 300 nM measured after 72 hrs by Annexin-V-FITC/propidium iodide staining based flow cytometry (reference value: 90.28%); type: functional; details: read-out: Activity
[28] = tested on: MV4-11; experiment: Induction of apoptosis in human MV4-11 cells assessed as viable cells at 300 nM measured after 72 hrs by Annexin-V-FITC/propidium iodide staining based flow cytometry (reference value: 89.49%); type: functional; details: read-out: Activity
[29] = tested on: MV4-11; experiment: Down regulation of CD44 mRNA expression in human MV4-11 cells at 11.1 to 1000 nM measured after 24 hrs by RT-qPCR analysis; type: functional, cell-based; details: dose 11.1-1000 nM
[30] = tested on: MV4-11; experiment: Effect on SMARCA4 mRNA expression in human MV4-11 cells at 1000 nM measured after 24 hrs by RT-qPCR analysis; type: functional, cell-based
[31] = MRT (0 to t) in SPF Sprague-Dawley rat at 10 mg/kg, po by LC-MS/MS analysis; type: ADME, organism-based; details: in vivo
[32] = tested on: MV4-11; experiment: Down regulation of […] mRNA expression in human MV4-11 cells at 100 to 1000 nM measured after 24 hrs by RT-qPCR analysis; type: functional, cell-based; details: dose 100-1000 nM
[33] = tested on: MV4-11; experiment: Induction of apoptosis in human MV4-11 cells assessed as necrotic cells at 100 nM measured after 72 hrs by Annexin-V-FITC/propidium iodide staining based flow cytometry (reference value: 0.1%); type: functional
[34] = tested on: SNU-449; experiment: cells; details: Homo sapiens, SNU-449, 72 h
[35] = tested on: MV4-11; experiment: Induction of apoptosis in human MV4-11 cells assessed as upregulation of cleaved caspase-3 expression measured after 72 hrs by Western blot analysis; type: functional, cell-based; details: dose 100-1000 nM
[36] = tested on: MV4-11; experiment: Induction of apoptosis in human MV4-11 cells assessed as late apoptotic cells at 1000 nM measured after 72 hrs by Annexin-V-FITC/propidium iodide staining based flow cytometry (reference value: 1.09%); type: functional
[37] = tested on: MV4-11; experiment: Down regulation of BCL-2 mRNA expression in human MV4-11 cells at 11.1 to 1000 nM measured after 24 hrs by RT-qPCR analysis; type: functional, cell-based; details: dose 11.1-1000 nM

In the case of `Cc1ncsc1-c1ccc([C@H](C)NC(=O)[C@@H]2C[C@@H](O)CN2C(=O)[C@@H](NC(=O)C2(c3ccc(-c4cc(-c5ccccc5O)nnc4N)cc3)CC2)C(C)(C)C)cc1`, the Cmax [1] is reported as 6.41 ng/mL, the Activity [2] is reported as 0.24% and the Activity [3] is reported as 6.91%. For the same molecule, the Activity [4] was “Active”, the Activity [5] was “Time-dependent-effect; Complete Reduction Was Achieved On Day 7” and the Activity [6] was “Time-dependent-effect; Complete Reduction Was Achieved On Day 7”. For the same molecule, the Activity [7] was “Dose-dependent-effect”, the Activity [8] was 14.39% and the Activity [9] was 20.37%. The Activity [10] was 47.5%, the Activity [11] was 54.11% and the Activity [12] was “inactive”. The Activity [13] was “Active”, the IC50 [14] was 6.02 µM and the IC50 [15] was over 30 µM. It also gave an Activity [16] of 51.91%, an Activity [17] of 1.1% and an Activity [18] of 38.84%. The Activity [19] was 0.31%, the viability at 0.1 µM [20] was 32.3% and the IC50 [21] was 0.337 µM. The Activity [22] was 0.19%, the MRT last [23] was 42 min and the IC50 [24] was 0.005 µM. The Activity [25] was 1.67%, the Activity [26] was “Active” and the viability at 0.3 µM [27] was 27.1%. For the same molecule, the viability at 0.3 µM [28] was 24.4%, the Activity [29] was “Active” and the Activity [30] was “Active; Little Effect Mrna Level Observed”. The MRT last [31] was 48.6 min, the Activity [32] was “Active” and the Activity [33] was 1.26%. For the same molecule, the IC50 [34] was 21.5 µM, the Activity [35] was “Dose-dependent-effect” and the Activity [36] was 24.35%. For the same molecule, the Activity [37] was “Active”.
